Data set [1] has as its target T1, mushroom tyrosinase (Agaricus bisporus, UniProt C7FF04).
T1 construct: purchased Sigma-Aldrich
Nature of the data set: Kinetic studies on the inhibition of mushroom tyrosinase (Lineweaver–Burk and Dixon plots). The settings on record: for Inhibition type: Lineweaver–Burk plots; for Ki: Dixon plot; for Vmax: regardless of 1b concentration. It counts as biochemical. As for the experimental part:
Lineweaver–Burk plots of compound 1b were acquired in the presence of L-tyrosine or L-DOPA as substrates. In brief, 10 µL aliquots of DMSO containing compound 1b (final concentrations: 0, 0.1, 0.2, or 0.4 µM in L-tyrosine, and 0, 1, 2, or 4 μM in L-DOPA) were added to the wells of a 96-well plate containing 170 µL of an aqueous solution (final concentrations: 1.0, 2.0, 4.0, 8.0, or 16.0 mM) of L-tyrosine or L-DOPA, sodium phosphate buffer (final concentration: 14.7 mM, pH 6.5), and 20 µL of mushroom tyrosinase (200 units/mL). Initial rates of dopachrome production were determined by measuring the increases in optical density at 475 nm (ΔOD475/min) using a microplate reader (VersaMax^TM, Molecular Devices, Sunnyvale, CA, USA). Maximal velocity (Vmax) was obtained from Lineweaver–Burk plots obtained using five different L-tyrosine or L-DOPA concentrations. Modes of tyrosinase inhibition were determined using plot convergence points.
Target sequence in this assay (C7FF04 1-392): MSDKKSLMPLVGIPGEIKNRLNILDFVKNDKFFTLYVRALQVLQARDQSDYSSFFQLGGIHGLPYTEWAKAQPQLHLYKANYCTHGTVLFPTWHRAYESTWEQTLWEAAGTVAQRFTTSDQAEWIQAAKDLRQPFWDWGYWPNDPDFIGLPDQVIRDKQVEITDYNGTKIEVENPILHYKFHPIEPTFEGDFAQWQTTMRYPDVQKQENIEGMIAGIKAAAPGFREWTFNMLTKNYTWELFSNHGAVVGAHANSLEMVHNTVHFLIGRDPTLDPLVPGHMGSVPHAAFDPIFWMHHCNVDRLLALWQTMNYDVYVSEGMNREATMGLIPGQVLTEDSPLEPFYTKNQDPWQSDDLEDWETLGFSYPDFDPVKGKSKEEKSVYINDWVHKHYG

Data set [2] has as its target T1, mushroom tyrosinase. Nature of the data set: Mushroom tyrosinase inhibition assay. It is filed as biochemical. As to conditions: L-tyrosine as substrate. As for the experimental part:
Mushroom tyrosinase inhibitory activity was determined as described previously, with minor modifications. L-Tyrosine was used as a substrate to determine enzyme activities. […] These dose-dependent inhibition experiments were carried out three times using three to five different concentrations of test compounds to determine IC50 values. Log–linear curves and their equations were derived from the observed percentages of inhibition.
Target sequence in this assay (C7FF04 1-392 limits assumed): as the sequence (C7FF04 1-392) above

For data set [3], the system named is B16F10 murine melanoma cells. Nature of the data set: B16F10 cell viability assay (EZ-Cytox). The settings on record: concentrations ≤20 μM, 48 h. It counts as cell-based. As for the experimental part:
B16F10 murine melanoma cells were obtained from the American Type Culture Collection (ATCC, Manassas, VA, USA). Phosphate buffer solution (PBS), Dulbecco’s modified Eagle’s medium (DMEM), streptomycin, penicillin, trypsin, and fetal bovine serum (FBS) were purchased from Gibco/Thermo Fisher Scientific (Carlsbad, CA, USA). B16F10 cells were cultured in a DMEM solution comprising 10% heat-inactivated FBS, penicillin (100 IU/mL), and streptomycin (100 µg/mL), at 37 °C in a humidified 5% CO2 atmosphere. Experiments for anti-melanogenesis activity, cell viability, and anti-tyrosinase activity were assayed on these cells in 96- or 6-well culture plates.
Cell viability assays for B16F10 were performed using the EZ-Cytox assay (EZ-3000, DoGenBio, Seoul, Korea). In brief, B16F10 cells were seeded in a 96-well plate at a density of 1 × 10^4 cells/well, and cultured at 37 °C for 24 h in a humidified 5% CO2 atmosphere. The next day, B16F10 cells were exposed to six concentrations of 1a or 1b (0, 1, 2, 5, 10, or 20 μM), and incubated under the same conditions for 48 h. Then, the EZ-Cytox solution (10 μL) was added to each well, and the cells mixed with the EZ-Cytox solution were further incubated for 2 h. At 450 nm, optical densities were measured using a microplate reader (VersaMax^TM, Molecular Devices, Sunnyvale, CA, USA).

Data set [4] has as its system TRP-1, TRP-2, and tyrosinase mRNA in B16F10 cells. As to the kind of experiment: qRT-PCR of melanogenesis-related genes. It is filed as cell-based, murine. As to conditions: 24 h; GAPDH internal control; versus untreated controls. The procedure: Total RNAs from cells were extracted using the RiboEx Total RNA solution (GeneAll Biotechnology, Seoul, Korea). Cells in 6-well plates (0.5 mL, 1 × 10^5 cells per well) were transferred to tubes, to which chloroform (0.1 mL) was added, and shaken vigorously for 30 s. Aqueous phases were transferred to fresh tubes, and an equal volume of isopropanol was added. Samples were then incubated for 15 min at 4 °C and centrifuged at 12,000× g for 15 min at 4 °C. After discarding the supernatants, RNA pellets were washed once with 0.5 mL of 75% ethanol, vortexed briefly, and centrifuged at 7500× g for 5 min at 4 °C. Pellets were dried for 10–15 min and dissolved in diethyl pyrocarbonate (DEPC)-treated water. Complementary DNA (cDNA) was synthesized from the total RNA (2 µg) using SuPrime Script RT Premix with random hexamer cDNA Synthesis Kit (GeNet Bio, Daejeon, Korea), in accordance with the manufacturers’ instructions. Quantitative qRT-PCR amplification was performed using SensiFAST^TM SYBR® No-ROX dye (Bioline, London, UK) on the CFX Connect System (Bio-Rad Laboratories, Hercules, CA, USA). The primers specific to TRP-1, TRP-2, tyrosinase, or GAPDH were purchased from Bioneer Inc. (Daejeon, Korea). Relative gene expressions were assessed using GAPDH as the internal control.
(In general: Quantitative PCR measures a nucleic acid by following its amplification.)

Entries after “also recorded” stand apart in the source; their conditions may differ.

The Ki is a dissociation constant, usually derived from enzyme kinetics or from competition with a known ligand. A low value points to a stronger hold on the target. One may read the Vmax as the top rate of the reaction or transport when substrate is in excess. As usually defined, the melting point is the temperature of the solid-liquid transition. Usually IC50 stands for the midpoint of a concentration-inhibition curve. For `Oc1ccc(-c2nc3cc(C(F)(F)F)ccc3s2)c(O)c1` [Compound 1b, 4-(5-(Trifluoromethyl)benzo[d]thiazol-2-yl)benzene-1,3-diol], the melting point lay within 236.2 to 238.2 °C. The Inhibition type entry at mushroom tyrosinase [1] (L-DOPA as substrate) was “competitive inhibitor; also recorded: L-DOPA (Inhibition Type ^a: Competitive)”. Moreover, on mushroom tyrosinase [1] (L-DOPA), the affinity, expressed as Ki, was 2450 nM and the “Vmax” value turned out to be 0.00497 mM/min. Besides, the Inhibition type entry on mushroom tyrosinase [1] (L-tyrosine as substrate) is “competitive inhibitor; also recorded: L-Tyrosine (Inhibition Type ^a: Competitive)”. In addition, at mushroom tyrosinase [1] (L-tyrosine), the Ki came to 37.6 nM and the “Vmax” value is 0.0101 mM/min. In addition, the IC50 against mushroom tyrosinase [2] amounted to 0.2 ± 0.01 µM. Besides, the “potency relative to kojic acid (fold more potent)” value at mushroom tyrosinase [2] (IC50 versus kojic acid) turned out to be 55 fold. On mushroom tyrosinase [2] (versus 1a), the “increase of anti-tyrosinase activity relative to 1a” value is recorded as 240 fold. Also, the “cytotoxic effect on B16F10 cell viability” value in data set [3] is “Neither compound exhibited a significant cytotoxic effect”. Also, in data set [4], the “mRNA expression levels of the three MITF target genes (TRP-1, TRP-2, tyrosinase)” value was “significantly and concentration-dependently suppressed”.

For the origin of these results see article PMC9311798, “A Novel Class of Potent Anti-Tyrosinase Compounds with Antioxidant Activity, 2-(Substituted phenyl)-5-(trifluoromethyl)benzo[d]thiazoles: In Vitro and In Silico Insights” (Antioxidants, 2022).
